Test results taken from patent publication US11795147B2, “Modulators of complex I” (Boehringer Ingelheim International GmbH, priority 2019, dated 2023).

These compounds were tested on HT-22 cells (assay: not given). Conditions: Mus musculus, HT-22, 16 h, read-out: HT22 IC50.
Assay type: cell-based, mice

Going from `Nc1ccc2c(c1)/C(=C1/NCCN(C(=O)OCc3ccccc3)C1O)C(=O)N2C1CCNCC1` (stereo not shown) [Compound 87] to `CCOC(=O)N1CCC(N2C(=O)/C(=C3/COCCN3)c3cc(N4C(C)CCC4C)ccc32)CC1` (stereo not shown) [Compound 11], the IC50 falls from 1000 nM to 38 nM (26-fold). The second is the more potent here.

First: CN1CCC(N2C(=O)/C(=C3/CCCN3)c3cc(N(C)C)ccc32)CC1 [Compound 109]
Second: CC(C)Nc1ccc2c(c1)/C(=C1\COCCN1)C(=O)N2C1CCN(C(C)C)CC1 [Compound 92]
The IC50 of the first is 3.6-fold higher: 160 nM for the first, 44 nM for the second.

Same assay, conditions: Mus musculus; protection of HT-22 cells from glutamate (5 mM) induced cell death, 16 hours, Alamar Blue viability; read-out: HT22 IC50

`CC(C)Nc1ccc2c(c1)/C(=C1\CN(C3CCOCC3)CCN1)C(=O)N2C1CCOCC1` [Compound 24] gave an IC50 of 123 nM.

What follows are compounds tested against Complex I (assay: Assay A: Determination of Complex I mediated ROS-inhibition (CI)). Conditions: read-out: CI IC50; ROS generation by Complex I purified from bovine heart, Amplex Red/horse radish peroxidase readout, 8 point concentration-response.
Assay type: biochemical

Going from `CC(C)Nc1ccc2c(c1)/C(=C1\COCCN1)C(=O)N2C1COC1` [Compound 135] to `CC(C)Nc1ccc2c(c1)/C(=C1\COCCN1)C(=O)N2C1COCCOC1` [Compound 26], the IC50 falls from 82 nM to 20 nM (4.1-fold).

Going from `O=C1/C(=C2/COCCN2)c2cc(NC3CCC3)ccc2N1C1CCOCC1` [Compound 132] to `O=C1/C(=C2/COCCN2)c2cc(NC3CCCC3)ccc2N1C1CCOCC1` [Compound 60], the IC50 rises from 55 nM to 245 nM (4.5-fold). The first is the more potent here.

Going from `CC(C)N1C(=O)/C(=C2/COCCN2)c2cc(NCC(C)(C)C)ccc21` [Compound 145] to `CC(C)N1C(=O)/C(=C2/COCCN2)c2cc(NC(C)C(C)(C)C)ccc21` (stereo not shown) [Compound 55], the IC50 rises from 183 nM to 307 nM (1.7-fold).

Compared with `CC(C)N1CCC(Nc2ccc3c(c2)/C(=C2\COCCN2)C(=O)N3C2CCOCC2)CC1` [Compound 19], `CN1CCC(Nc2ccc3c(c2)/C(=C2\COCCN2)C(=O)N3C2CCOCC2)CC1` [Compound 150] is 2.2-fold higher in IC50: 22 nM for the first, 48 nM for the second.

First: COC1COCCC1Nc1ccc2c(c1)/C(=C1\COCCN1)C(=O)N2C(C)C (stereo not shown) [Compound 16]
Second: CC1OCCC1Nc1ccc2c(c1)/C(=C1\COCCN1)C(=O)N2C(C)C (stereo not shown) [Compound 125]
The IC50 of the first is 6.3-fold higher: 313 nM for the first, 50 nM for the second.

`CN(C)c1ccc2c(c1)/C(=C1\CCCCCN1)C(=O)N2C` [Compound 105] and `CN(C)c1ccc2c(c1)/C(=C1\CCCCN1)C(=O)N2C` [Compound 62] are within 1.5-fold of each other in IC50: 64 nM for the first, 81 nM for the second.

Compared with `CC(C)N1C(=O)/C(=C2/COCCN2)c2cc(NCc3cc[nH]n3)ccc21` [Compound 74], `CC(C)CNc1ccc2c(c1)/C(=C1\COCCN1)C(=O)N2C(C)C` [Compound 173] is 8-fold higher in IC50: 46 nM for the first, 367 nM for the second. The first is the more potent here.

Going from `CC(C)Nc1ccc2c(c1)/C(=C1\COCCN1)C(=O)N2C(C)C` [Compound 44] to `CC(C)Nc1ccc2c(c1)/C(=C1\CCOCCN1)C(=O)N2C(C)C` [Compound 82], the IC50 rises from 44 nM to 91 nM (2.1-fold). The first is the more potent here.

`CC(Nc1ccc2c(c1)/C(=C1\COCCN1)C(=O)N2C(C)C)c1ccncc1` (stereo not shown) [Compound 143] and `CC(Nc1ccc2c(c1)/C(=C1\COCCN1)C(=O)N2C(C)C)c1ccccn1` (stereo not shown) [Compound 71] are within 1.5-fold of each other in IC50: 79 nM for the first, 93 nM for the second.

Going from `CC(C)N1C(=O)/C(=C2/CCOCCN2)c2cc(N3C(C)CCC3C)ccc21` (stereo not shown) [Compound 128] to `CC1CCC(C)N1c1ccc2c(c1)/C(=C1\COCCN1)C(=O)N2C` (stereo not shown) [Compound 84], the IC50 rises from 44 nM to 333 nM (7.6-fold).

`CC(C)Nc1ccc2c(c1)/C(=C1\CN(C(C)C)CCN1)C(=O)N2C(C)C` [Compound 88] and `CC(C)Nc1ccc2c(c1)/C(=C1\CCCCN1)C(=O)N2C(C)C` [Compound 133] are within 1.5-fold of each other in IC50: 68 nM for the first, 49 nM for the second.

Going from `O=C1/C(=C2/COCCN2)c2cc(N3CCCCC3)ccc2N1C1CCOCC1` [Compound 86] to `O=C1/C(=C2/COCCN2)c2cc(N3CCCC3)ccc2N1C1CCOCC1` [Compound 117], the IC50 rises from 69 nM to 738 nM (11-fold). The first is the more potent here.

`O=C1/C(=C2/COCCN2)c2cc(NC3CCCC3)ccc2N1C1COCCOC1` [Compound 50] and `O=C1/C(=C2/COCCN2)c2cc(NC3CCCC3)ccc2N1C1COC1` [Compound 65] are within 1.5-fold of each other in IC50: 195 nM for the first, 194 nM for the second.

Going from `CN1C(=O)/C(=C2/COCCN2)c2cc(NC3CCC3)ccc21` [Compound 154] to `CC(C)N1C(=O)/C(=C2/COCCN2)c2cc(NC3CCCC3)ccc21` [Compound 94], the IC50 rises from 193 nM to 558 nM (2.9-fold).

`CC(C)N1CCC2(CC1)CN/C(=C1\C(=O)N(C(C)C)c3ccc(N4C(C)CCC4C)cc31)CO2` (stereo not shown) [Compound 139] and `CC(C)N1CCC2(CC1)CN/C(=C1\C(=O)N(C(C)C)c3ccc(N4CCCC4)cc31)CO2` [Compound 91] are within 1.5-fold of each other in IC50: 308 nM for the first, 242 nM for the second.

Going from `COCC(C)N1C(=O)/C(=C2/COCCN2)c2cc(NC(C)C)ccc21` (stereo not shown) [Compound 28] to `COCC(C)N1C(=O)/C(=C2/COCCN2)c2cc(N3CCCC3)ccc21` (stereo not shown) [Compound 68], the IC50 rises from 69 nM to 624 nM (9-fold).

`CC(Nc1ccc2c(c1)/C(=C1\COCCN1)C(=O)N2C(C)C)C1CCCC1` (stereo not shown) [Compound 56] and `CC(C)N1C(=O)/C(=C2/COCCN2)c2cc(NC3CCOCC3)ccc21` [Compound 36] are within 1.5-fold of each other in IC50: 159 nM for the first, 150 nM for the second.

First: O=C1/C(=C2/COCCN2)c2cc(NC3CCC(F)(F)CC3)ccc2N1C1CCOCC1 [Compound 78]
Second: O=C1/C(=C2/CCOCCN2)c2cc(NC3CCC3)ccc2N1C1CCOCC1 [Compound 120]
The IC50 of the first is 2.6-fold lower: 89 nM for the first, 235 nM for the second.

First: CNc1ccc2c(c1)/C(=C1\CCCN1)C(=O)N2C1CCOCC1 [Compound 43]
Second: CC(C)Nc1ccc2c(c1)/C(=C1\COCCCN1)C(=O)N2C1CCOCC1 [Compound 167]
The IC50 of the first is 5.9-fold lower: 11 nM for the first, 65 nM for the second. The first is the more potent here.

First: CC(=O)N1CCC2(CC1)CN/C(=C1\C(=O)N(C(C)C)c3ccc(NC(C)C)cc31)CO2 [Compound 34]
Second: CC(C)Nc1ccc2c(c1)/C(=C1\COC3(CCN(C(C)C)CC3)CN1)C(=O)N2C(C)C [Compound 138]
The IC50 of the first is 4.3-fold lower: 48 nM for the first, 206 nM for the second.

`CC1CCC(C)N1c1ccc2c(c1)/C(=C1\COCCN1)C(=O)N2C1CCOCC1` (stereo not shown) [Compound 156] and `CC1CCN(c2ccc3c(c2)/C(=C2\COCCN2)C(=O)N3C2CCOCC2)CC1` [Compound 85] are within 1.5-fold of each other in IC50: 77 nM for the first, 69 nM for the second.

`CC(C)N1C(=O)C(=C2CCOCC2)c2cc(NC3CCC3)ccc21` [Compound 25] and `CC(C)N1C(=O)C(=C2CCOCC2)c2cc(NC3CCCC3)ccc21` [Compound 116] are within 1.5-fold of each other in IC50: 707 nM for the first, 539 nM for the second.

Compared with `CC(=O)N1CC[C@H](N2C(=O)/C(=C3/COCCN3)c3cc(NC(C)C)ccc32)C1` [Compound 170], `CC(C)Nc1ccc2c(c1)/C(=C1\COCCN1)C(=O)N2[C@H]1CCN(C(C)C)C1` [Compound 31] is 3.5-fold higher in IC50: 23 nM for the first, 81 nM for the second.

Compared with `O=C1/C(=C2/CCOCCN2)c2cc(NC3CCCC3)ccc2N1C1CCOCC1` [Compound 13], `CC(Nc1ccc2c(c1)/C(=C1\COCCN1)C(=O)N2C1CCOCC1)C1CCCC1` (stereo not shown) [Compound 61] is 4.1-fold higher in IC50: 84 nM for the first, 343 nM for the second.

Compared with `O=C1/C(=C2/COCCN2)c2cc(NCC3CCOC3)ccc2N1C1CCOCC1` (stereo not shown) [Compound 151], `O=C1/C(=C2/COCCN2)c2cc(NC3CCOCC3F)ccc2N1C1CCOCC1` (stereo not shown) [Compound 80] is 2.8-fold lower in IC50: 232 nM for the first, 84 nM for the second. The second is the more potent here.

First: O=C(CCO)Nc1ccc2c(c1)/C(=C1\COCCN1)C(=O)N2C1CCOC1 (stereo not shown) [Compound 169]
Second: O=C1/C(=C2/COCCN2)c2cc(NC3CCOC3)ccc2N1C1CCOC1 (stereo not shown) [Compound 168]
The IC50 of the first is 23-fold higher: 944 nM for the first, 41 nM for the second.

`CC(C)Nc1ccc2c(c1)/C(=C1\CCCN1C)C(=O)N2C1CCOCC1` [Compound 48] and `CC(=O)N1CCN/C(=C2\C(=O)N(C3CCOCC3)c3ccc(NC(C)C)cc32)C1` [Compound 111] are within 1.5-fold of each other in IC50: 122 nM for the first, 119 nM for the second.

Going from `CC(C)Nc1ccc2c(c1)/C(=C1\COCC(C)N1)C(=O)N2C1CCOCC1` (stereo not shown) [Compound 33] to `CC(C)Nc1ccc2c(c1)/C(=C1\CN(C3CCOCC3)CCN1)C(=O)N2C1CCOCC1` [Compound 24], the IC50 rises from 32 nM to 48 nM (1.5-fold).

Compared with `O=C1/C(=C2/COCCN2)c2cc(NCc3cc[nH]n3)ccc2N1C1CCOCC1` [Compound 21], `CC(C)N1C(=O)/C(=C2/COCCN2)c2cc(NCC3CCOCC3)ccc21` [Compound 75] is 1.5-fold lower in IC50: 108 nM for the first, 72 nM for the second.

First: CC(Nc1ccc2c(c1)/C(=C1\COCCN1)C(=O)N2C(C)C)c1ccnn1C (stereo not shown) [Compound 17]
Second: CC(C)N1C(=O)/C(=C2/COCCN2)c2cc(NCC3(C)COC3)ccc21 [Compound 127]
The IC50 of the first is 3.7-fold lower: 22 nM for the first, 82 nM for the second.

Compared with `CC(C)N1C(=O)/C(=C2/COCCN2)c2cc(N3CCCC3)ccc21` [Compound 130], `CC(C)N1C(=O)/C(=C2/COCCN2)c2cc(NC3CCN(C)CC3)ccc21` [Compound 38] is 17-fold lower in IC50: 877 nM for the first, 51 nM for the second. The second is the more potent here.

`CC(C)C(C)Nc1ccc2c(c1)/C(=C1\COCCN1)C(=O)N2C1COCCOC1` (stereo not shown) [Compound 27] and `CC(Nc1ccc2c(c1)/C(=C1\COCCN1)C(=O)N2C1COC1)C1CC1` (stereo not shown) [Compound 67] are within 1.5-fold of each other in IC50: 162 nM for the first, 225 nM for the second.

`CC(=O)N1CCC2(CC1)CN/C(=C1\C(=O)N(C(C)C)c3ccc(N4CCCC4)cc31)CO2` [Compound 53] and `CC(=O)N1CCN/C(=C2\C(=O)N(C3CCOCC3)c3ccc(N4CCCC4)cc32)CC1` [Compound 12] are within 1.5-fold of each other in IC50: 233 nM for the first, 194 nM for the second.

`CC(C)Nc1ccc2c(c1)/C(=C1\CCCN1C)C(=O)N2C(C)C` [Compound 115] and `CC(C)N1C(=O)/C(=C2/COCCN2)c2cc(NCC3CC3)ccc21` [Compound 58] are within 1.5-fold of each other in IC50: 80 nM for the first, 100 nM for the second.

Compared with `CN(C)c1ccc2c(c1)/C(=C1\CCN(C(=O)OCc3ccccc3)CCN1)C(=O)N2C` [Compound 108], `CN(C)c1ccc2c(c1)C(=C1NCC3(CCCCC3)CN1)C(=O)N2C` [Compound 104] is 6-fold higher in IC50: 118 nM for the first, 704 nM for the second.

First: CC(C)N1C(=O)/C(=C2/COCCN2)c2cc(NCC3CCOC3)ccc21 (stereo not shown) [Compound 39]
Second: O=C1/C(=C2/CC3(CN2)COC3)c2cc(NC3CCOC3)ccc2N1C1CCOCC1 (stereo not shown) [Compound 70]
The IC50 of the first is 2.9-fold lower: 67 nM for the first, 193 nM for the second. The first is the more potent here.

Going from `O=C1C(=C2CCOCC2)c2cc(N3CCCC3)ccc2N1C1CCOCC1` [Compound 112] to `O=C1/C(=C2/CCN(C3COC3)CCN2)c2cc(N3CCCC3)ccc2N1C1CCOCC1` [Compound 121], the IC50 falls from 352 nM to 75 nM (4.7-fold). The second is the more potent here.
